We go through six molecules from PMC4858680, “A platinum-based hybrid drug design approach to circumvent acquired resistance to molecular targeted tyrosine kinase inhibitors” (Scientific Reports, 2016).

Read-outs that look alike come from different tables or passages of the source.

Type in all cases: binding
Assay [1] addresses T1, BLK (Homo sapiens, UniProt P51451).
T1 construct: purchased DiscoveRx KINOMEscan
The following applies: for Percent control: BLK, 10 μM; for remaining binding at 10 µM: read-out: Percent control.

Assay [2] addresses T2, BMX (Homo sapiens, UniProt P51813).
T2 construct: purchased DiscoveRx KINOMEscan
T2 sequence (P51813 1-675): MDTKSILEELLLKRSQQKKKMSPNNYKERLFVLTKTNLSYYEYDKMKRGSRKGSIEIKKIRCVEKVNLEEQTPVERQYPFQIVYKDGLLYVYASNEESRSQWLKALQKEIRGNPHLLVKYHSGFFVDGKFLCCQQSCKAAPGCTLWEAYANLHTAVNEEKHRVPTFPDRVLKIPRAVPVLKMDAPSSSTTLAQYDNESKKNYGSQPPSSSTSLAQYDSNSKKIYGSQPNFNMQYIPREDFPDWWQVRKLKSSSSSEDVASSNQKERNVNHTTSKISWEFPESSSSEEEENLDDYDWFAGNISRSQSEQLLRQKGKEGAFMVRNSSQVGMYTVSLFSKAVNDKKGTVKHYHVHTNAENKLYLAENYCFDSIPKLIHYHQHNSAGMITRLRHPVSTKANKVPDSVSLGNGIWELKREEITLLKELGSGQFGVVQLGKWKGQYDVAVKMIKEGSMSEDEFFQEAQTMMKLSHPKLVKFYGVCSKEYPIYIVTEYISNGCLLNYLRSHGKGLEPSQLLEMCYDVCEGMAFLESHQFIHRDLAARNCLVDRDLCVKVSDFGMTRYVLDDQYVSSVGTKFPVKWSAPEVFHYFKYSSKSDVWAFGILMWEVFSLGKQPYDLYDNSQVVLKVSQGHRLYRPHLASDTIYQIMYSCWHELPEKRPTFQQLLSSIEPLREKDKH
The following applies: for remaining binding at 10 µM: read-out: Percent control.

In assay [3] the target is T3, EPHA7 (Homo sapiens, UniProt Q15375).
T3 construct: purchased DiscoveRx KINOMEscan
The following applies: for remaining binding at 10 µM: read-out: Percent control.

For assay [4], the target named is T4, FAK (Homo sapiens, UniProt Q05397).
T4 construct: purchased DiscoveRx KINOMEscan
The following applies: for remaining binding at 10 µM: read-out: Percent control.

For assay [5], the target named is T5, FES (Homo sapiens, UniProt P07332).
T5 construct: purchased DiscoveRx KINOMEscan
The following applies: for remaining binding at 10 µM: read-out: Percent control.

Assay [6] has as its target T6, JAK2(JH1domain-catalytic) (Homo sapiens, UniProt O60674).
T6 construct: JAK2(JH1domain-catalytic); purchased DiscoveRx KINOMEscan
The following applies: for Percent control: 10 μM; for remaining binding at 10 µM: read-out: Percent control.

For assay [7], the target named is T7, JAK3(JH1domain-catalytic) (Homo sapiens, UniProt P52333).
T7 construct: JAK3(JH1domain-catalytic); purchased DiscoveRx KINOMEscan
The following applies: for remaining binding at 10 µM: read-out: Percent control.

In assay [8] the target is T8, SRMS (Homo sapiens, UniProt Q9H3Y6).
T8 construct: purchased DiscoveRx (KINOMEscan service)
The note with it: for remaining binding at 10 µM: read-out: Percent control.

For assay [9], the target named is T9, TEC (Homo sapiens, UniProt P42680).
T9 construct: purchased DiscoveRx (KINOMEscan service)
T9 sequence (P42680 1-631): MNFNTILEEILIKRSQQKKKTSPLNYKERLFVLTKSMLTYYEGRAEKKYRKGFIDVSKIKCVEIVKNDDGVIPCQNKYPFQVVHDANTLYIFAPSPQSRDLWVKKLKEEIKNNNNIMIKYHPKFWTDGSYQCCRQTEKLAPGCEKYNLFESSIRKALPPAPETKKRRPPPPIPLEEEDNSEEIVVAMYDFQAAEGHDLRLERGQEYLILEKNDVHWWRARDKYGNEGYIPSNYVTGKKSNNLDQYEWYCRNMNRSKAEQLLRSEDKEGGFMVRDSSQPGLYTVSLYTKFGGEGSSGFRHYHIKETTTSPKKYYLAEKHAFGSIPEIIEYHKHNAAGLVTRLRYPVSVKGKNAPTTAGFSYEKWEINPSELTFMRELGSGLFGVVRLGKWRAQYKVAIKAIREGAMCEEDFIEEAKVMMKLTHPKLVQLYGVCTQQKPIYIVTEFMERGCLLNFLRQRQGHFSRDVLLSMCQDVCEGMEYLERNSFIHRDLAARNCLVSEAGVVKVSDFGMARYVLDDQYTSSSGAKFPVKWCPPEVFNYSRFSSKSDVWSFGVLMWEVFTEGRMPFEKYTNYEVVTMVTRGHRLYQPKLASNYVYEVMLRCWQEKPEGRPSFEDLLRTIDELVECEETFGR
The note with it: for remaining binding at 10 µM: read-out: Percent control.

Assay [10] addresses T10, TNK1 (Homo sapiens, UniProt Q13470).
T10 construct: purchased DiscoveRx (KINOMEscan service)
T10 sequence (Q13470 1-666): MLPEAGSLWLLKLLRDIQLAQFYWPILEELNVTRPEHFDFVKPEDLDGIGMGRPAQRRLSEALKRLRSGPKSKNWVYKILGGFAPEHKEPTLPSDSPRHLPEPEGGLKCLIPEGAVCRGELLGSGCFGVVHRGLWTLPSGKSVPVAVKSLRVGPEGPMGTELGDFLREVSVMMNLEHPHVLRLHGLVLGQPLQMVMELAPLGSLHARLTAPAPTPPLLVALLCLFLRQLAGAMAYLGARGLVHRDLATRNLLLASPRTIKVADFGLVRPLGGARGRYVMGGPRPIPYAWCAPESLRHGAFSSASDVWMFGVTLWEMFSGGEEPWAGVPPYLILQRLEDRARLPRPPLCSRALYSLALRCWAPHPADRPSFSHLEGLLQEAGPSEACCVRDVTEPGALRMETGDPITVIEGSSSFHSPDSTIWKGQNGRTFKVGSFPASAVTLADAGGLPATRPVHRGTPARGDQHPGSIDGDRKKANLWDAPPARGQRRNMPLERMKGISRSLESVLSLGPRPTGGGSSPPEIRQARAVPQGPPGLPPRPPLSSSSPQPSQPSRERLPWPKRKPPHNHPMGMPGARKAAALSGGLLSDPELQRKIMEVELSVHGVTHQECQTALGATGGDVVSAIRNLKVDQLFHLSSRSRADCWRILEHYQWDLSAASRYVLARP
The following applies: for Percent control: 10 μM; for remaining binding at 10 µM: read-out: Percent control.

The target of assay [11] is T11, TRKB (Homo sapiens, UniProt Q16620).
T11 construct: purchased DiscoveRx (KINOMEscan service)
The note with it: for remaining binding at 10 µM: read-out: Percent control.

The mark [12] stands for this setting: JAK3(JH1domain-catalytic), 10 μM.

T11 sequence (Q16620 32-822): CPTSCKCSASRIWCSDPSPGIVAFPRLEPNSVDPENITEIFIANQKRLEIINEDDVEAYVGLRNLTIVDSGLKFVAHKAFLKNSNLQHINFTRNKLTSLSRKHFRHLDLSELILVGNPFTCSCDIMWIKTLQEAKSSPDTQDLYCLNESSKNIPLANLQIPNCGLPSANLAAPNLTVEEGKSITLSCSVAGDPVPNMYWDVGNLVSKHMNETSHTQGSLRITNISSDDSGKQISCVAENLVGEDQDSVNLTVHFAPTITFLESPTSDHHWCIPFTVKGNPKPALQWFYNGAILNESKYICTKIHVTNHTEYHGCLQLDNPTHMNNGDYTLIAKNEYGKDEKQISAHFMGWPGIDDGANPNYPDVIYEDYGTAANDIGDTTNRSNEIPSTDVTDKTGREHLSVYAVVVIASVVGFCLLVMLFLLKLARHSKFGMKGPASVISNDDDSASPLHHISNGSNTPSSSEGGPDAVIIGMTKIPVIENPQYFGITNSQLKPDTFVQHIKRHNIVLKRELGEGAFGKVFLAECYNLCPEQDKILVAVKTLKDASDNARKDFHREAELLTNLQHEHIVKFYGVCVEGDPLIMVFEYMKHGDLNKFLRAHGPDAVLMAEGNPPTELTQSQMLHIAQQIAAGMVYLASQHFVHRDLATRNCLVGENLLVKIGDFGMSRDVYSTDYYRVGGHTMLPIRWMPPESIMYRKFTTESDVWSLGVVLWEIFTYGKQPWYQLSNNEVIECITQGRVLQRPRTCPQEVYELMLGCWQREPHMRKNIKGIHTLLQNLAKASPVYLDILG
T5 sequence (P07332 whole entry): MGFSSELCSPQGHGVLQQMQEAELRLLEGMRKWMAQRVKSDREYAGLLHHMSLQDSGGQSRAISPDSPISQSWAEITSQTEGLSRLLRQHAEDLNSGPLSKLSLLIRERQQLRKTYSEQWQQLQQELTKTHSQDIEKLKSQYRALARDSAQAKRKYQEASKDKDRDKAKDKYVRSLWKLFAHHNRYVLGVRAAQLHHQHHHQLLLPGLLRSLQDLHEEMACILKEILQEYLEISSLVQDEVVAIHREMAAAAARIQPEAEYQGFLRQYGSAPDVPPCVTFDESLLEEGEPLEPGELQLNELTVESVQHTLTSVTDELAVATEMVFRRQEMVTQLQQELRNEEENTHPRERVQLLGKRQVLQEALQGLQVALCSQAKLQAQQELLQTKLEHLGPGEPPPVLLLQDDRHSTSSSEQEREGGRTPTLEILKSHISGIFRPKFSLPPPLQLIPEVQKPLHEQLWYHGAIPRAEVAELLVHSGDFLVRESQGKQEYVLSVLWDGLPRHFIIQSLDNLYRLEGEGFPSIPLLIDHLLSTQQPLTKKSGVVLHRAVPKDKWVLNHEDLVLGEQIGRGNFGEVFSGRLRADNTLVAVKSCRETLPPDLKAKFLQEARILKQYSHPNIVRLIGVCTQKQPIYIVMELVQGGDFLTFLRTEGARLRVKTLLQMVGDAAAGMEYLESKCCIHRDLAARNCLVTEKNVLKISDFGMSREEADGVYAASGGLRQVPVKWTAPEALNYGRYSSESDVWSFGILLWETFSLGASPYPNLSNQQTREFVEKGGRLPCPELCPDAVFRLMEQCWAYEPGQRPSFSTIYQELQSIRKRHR
T1 sequence (P51451 whole entry): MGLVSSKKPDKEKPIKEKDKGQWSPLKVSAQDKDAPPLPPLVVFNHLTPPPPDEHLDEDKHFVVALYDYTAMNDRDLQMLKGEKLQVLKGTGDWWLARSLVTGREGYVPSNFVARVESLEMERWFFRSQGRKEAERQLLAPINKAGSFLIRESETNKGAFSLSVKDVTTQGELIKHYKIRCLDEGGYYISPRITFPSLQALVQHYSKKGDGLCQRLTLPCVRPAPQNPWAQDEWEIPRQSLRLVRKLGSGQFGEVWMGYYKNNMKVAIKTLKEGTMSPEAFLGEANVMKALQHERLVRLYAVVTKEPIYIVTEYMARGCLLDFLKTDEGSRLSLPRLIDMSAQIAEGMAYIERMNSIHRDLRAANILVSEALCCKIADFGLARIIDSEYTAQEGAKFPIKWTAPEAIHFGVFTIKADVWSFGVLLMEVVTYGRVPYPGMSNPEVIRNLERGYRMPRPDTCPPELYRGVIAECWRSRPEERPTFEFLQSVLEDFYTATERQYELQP
T6 sequence (O60674 840-1132 limits assumed): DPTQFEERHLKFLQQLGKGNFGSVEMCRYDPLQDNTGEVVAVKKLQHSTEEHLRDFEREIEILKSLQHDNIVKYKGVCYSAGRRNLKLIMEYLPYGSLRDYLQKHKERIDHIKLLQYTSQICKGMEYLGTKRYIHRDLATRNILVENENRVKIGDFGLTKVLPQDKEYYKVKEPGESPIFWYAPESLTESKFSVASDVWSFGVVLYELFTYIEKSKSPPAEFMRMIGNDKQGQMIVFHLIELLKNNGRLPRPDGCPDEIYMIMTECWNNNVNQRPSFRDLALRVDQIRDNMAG
T7 sequence (P52333 813-1124 limits assumed): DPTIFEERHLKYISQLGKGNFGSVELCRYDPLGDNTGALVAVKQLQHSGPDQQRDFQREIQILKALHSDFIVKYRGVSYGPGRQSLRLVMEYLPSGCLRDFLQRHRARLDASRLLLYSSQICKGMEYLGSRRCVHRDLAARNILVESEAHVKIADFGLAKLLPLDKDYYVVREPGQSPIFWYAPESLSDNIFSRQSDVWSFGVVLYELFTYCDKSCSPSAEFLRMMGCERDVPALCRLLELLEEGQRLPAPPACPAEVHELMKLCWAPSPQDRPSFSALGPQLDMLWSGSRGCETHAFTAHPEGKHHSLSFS
T3 sequence (Q15375 28-998): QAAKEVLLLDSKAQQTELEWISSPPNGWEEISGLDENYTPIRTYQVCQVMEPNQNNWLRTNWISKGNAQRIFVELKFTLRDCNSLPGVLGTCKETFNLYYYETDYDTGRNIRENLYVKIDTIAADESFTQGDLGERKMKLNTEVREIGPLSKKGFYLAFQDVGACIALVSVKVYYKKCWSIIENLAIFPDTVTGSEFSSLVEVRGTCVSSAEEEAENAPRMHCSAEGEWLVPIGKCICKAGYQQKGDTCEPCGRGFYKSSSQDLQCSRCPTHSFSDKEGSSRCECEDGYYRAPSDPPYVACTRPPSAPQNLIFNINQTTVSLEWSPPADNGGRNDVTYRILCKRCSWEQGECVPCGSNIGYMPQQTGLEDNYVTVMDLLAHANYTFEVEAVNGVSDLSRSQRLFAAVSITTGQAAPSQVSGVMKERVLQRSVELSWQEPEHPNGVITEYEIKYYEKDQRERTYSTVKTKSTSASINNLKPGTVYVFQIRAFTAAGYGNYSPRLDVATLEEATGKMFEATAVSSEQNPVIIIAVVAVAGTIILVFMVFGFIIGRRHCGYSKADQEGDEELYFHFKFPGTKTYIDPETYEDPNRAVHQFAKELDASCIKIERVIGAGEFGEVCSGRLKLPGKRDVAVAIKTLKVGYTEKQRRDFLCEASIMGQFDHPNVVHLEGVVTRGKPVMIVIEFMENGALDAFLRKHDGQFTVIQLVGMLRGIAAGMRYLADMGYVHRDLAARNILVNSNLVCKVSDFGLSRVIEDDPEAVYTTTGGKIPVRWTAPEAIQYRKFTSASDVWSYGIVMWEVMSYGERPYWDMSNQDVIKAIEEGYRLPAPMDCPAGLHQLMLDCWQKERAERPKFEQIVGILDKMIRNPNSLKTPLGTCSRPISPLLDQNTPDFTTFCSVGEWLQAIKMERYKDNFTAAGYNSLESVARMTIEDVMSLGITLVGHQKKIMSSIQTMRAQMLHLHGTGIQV
T4 sequence (Q05397 whole entry): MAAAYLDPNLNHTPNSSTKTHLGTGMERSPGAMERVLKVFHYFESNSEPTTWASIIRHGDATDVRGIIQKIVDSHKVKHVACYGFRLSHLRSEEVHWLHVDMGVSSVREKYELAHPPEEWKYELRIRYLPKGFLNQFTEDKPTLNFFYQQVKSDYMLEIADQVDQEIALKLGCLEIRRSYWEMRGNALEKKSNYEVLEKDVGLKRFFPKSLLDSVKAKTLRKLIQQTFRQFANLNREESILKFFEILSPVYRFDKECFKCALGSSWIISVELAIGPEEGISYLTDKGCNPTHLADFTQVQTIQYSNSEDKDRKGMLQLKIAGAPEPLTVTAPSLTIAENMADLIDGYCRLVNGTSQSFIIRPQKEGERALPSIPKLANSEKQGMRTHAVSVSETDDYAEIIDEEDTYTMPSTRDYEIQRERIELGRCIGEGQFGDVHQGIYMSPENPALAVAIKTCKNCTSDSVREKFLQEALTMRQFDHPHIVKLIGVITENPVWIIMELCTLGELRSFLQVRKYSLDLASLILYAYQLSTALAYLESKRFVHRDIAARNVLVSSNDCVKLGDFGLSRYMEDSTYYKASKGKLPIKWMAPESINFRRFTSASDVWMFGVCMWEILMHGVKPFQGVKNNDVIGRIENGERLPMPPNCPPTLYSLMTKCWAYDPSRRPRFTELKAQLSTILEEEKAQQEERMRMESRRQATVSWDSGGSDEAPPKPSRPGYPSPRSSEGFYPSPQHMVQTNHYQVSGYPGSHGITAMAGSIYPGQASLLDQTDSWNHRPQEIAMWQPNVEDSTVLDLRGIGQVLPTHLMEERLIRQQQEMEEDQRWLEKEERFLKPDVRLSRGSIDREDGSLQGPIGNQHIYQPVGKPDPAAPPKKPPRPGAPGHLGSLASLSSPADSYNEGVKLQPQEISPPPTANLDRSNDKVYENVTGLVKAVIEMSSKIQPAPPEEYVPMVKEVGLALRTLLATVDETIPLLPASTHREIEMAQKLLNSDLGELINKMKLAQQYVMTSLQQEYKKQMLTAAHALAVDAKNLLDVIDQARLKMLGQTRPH

`Cc1ccc(NC(=O)c2ccc(CN3CCN(C)CC3)cc2)cc1Nc1nccc(-c2cccnc2)[n+]1[Pt-2]1([Cl])[NH2+]C2CCCCC2[NH2+]1` (stereo not drawn) [1b, oxaliplatin-imatinib]: the Percent control in assay [1] stood at 12%; in assay [2] (BMX, 10 μM), 98%; in assay [3] (EPHA7, 10 μM), 100%; in assay [4] (FAK, 10 μM), 90%; in assay [5] (FES, 10 μM), 96%; in [6], 100%. For the same molecule, the Percent control was 55% in assay [7] (setting [12]); 98% in assay [8] (SRMS, 10 μM); 100% in assay [9] (TEC, 10 μM); 90% in assay [10]; 100% in assay [11] (TRKB, 10 μM).

With `C#Cc1cccc(Nc2c3cc(OCCOC)c(OCCOC)cc3nc[n+]2[Pt@SP2-2]([NH3+])([NH3+])[Cl])c1` [2a, cisplatin-erlotinib], the Percent control in assay [1] worked out at 41%; in [2] (BMX, 10 μM) it was 100%; in assay [3] (EPHA7, 10 μM), 67%; in assay [4] (FAK, 10 μM), 94%; in assay [5] (FES, 10 μM), 98%; in [6], 46%. Besides, the Percent control in [7] (setting [12]) stood at 28%; in assay [8] (SRMS, 10 μM), 94%; in [9] (TEC, 10 μM), 72%; in [10], 85%; in assay [11] (TRKB, 10 μM), 95%.

As to `COc1cc2c(Nc3ccc(Br)cc3F)[n+]([Pt-2]3([Cl])[NH2+]C4CCCCC4[NH2+]3)cnc2cc1OCC1CCN(C)CC1` (stereo not drawn) [3b, oxaliplatin-vandetanib], the Percent control in assay [1] is listed as 1.4%; in assay [2] (BMX, 10 μM) it was 92%; in assay [3] (EPHA7, 10 μM), 79%; in assay [4] (FAK, 10 μM) it was 86%; in assay [5] (FES, 10 μM) it was 100%; in [6] it was 100%. Moreover, the Percent control in assay [7] (setting [12]) was determined as 100%; in [8] (SRMS, 10 μM) it was 95%; in assay [9] (TEC, 10 μM), 100%; in assay [10], 90%; in assay [11] (TRKB, 10 μM), 72%.

With `C#Cc1cccc(Nc2ncnc3cc(OCCOC)c(OCCOC)cc23)c1` [Erlotinib], the remaining binding at 10 µM came to 1.9% in assay [1]; 100% in assay [2]; 12.3% in [3]; 100% in assay [4]; 100% in [5]; 27% in [6]. Moreover, the remaining binding at 10 µM was determined as 6.5% in assay [7]; 100% in [8]; 100% in assay [9]; 5.9% in [10]; 100% in assay [11].

On to `Cc1ccc(NC(=O)c2ccc(CN3CCN(C)CC3)cc2)cc1Nc1nccc(-c2cccnc2)n1` [Imatinib, reference compound], for which the Percent control in assay [1] came out at 4.9%; in [2] (BMX, 10 μM), 100%; in assay [3] (EPHA7, 10 μM), 100%; in [4] (FAK, 10 μM), 100%; in assay [5] (FES, 10 μM), 100%; in [7] (setting [12]), 100%. Further, the Percent control in assay [8] (SRMS, 10 μM) stood at 100%; in assay [9] (TEC, 10 μM) it was 100%; in [10] it was 100%; in assay [11] (TRKB, 10 μM), 100%. Moreover, the remaining binding at 10 µM in [6] amounted to 100%.

With `COc1cc2c(Nc3ccc(Br)cc3F)ncnc2cc1OCC1CCN(C)CC1` [Vandetanib, reference compound], the remaining binding at 10 µM was 0.7% in [1]; 100% in [2] (BMX, 10 μM); 19.4% in assay [3] (EPHA7, 10 μM); 100% in [4] (FAK, 10 μM); 100% in assay [5] (FES, 10 μM); 100% in assay [6]. The remaining binding at 10 µM in assay [7] (setting [12]) turned out to be 100%; in [8] (SRMS, 10 μM) it was 16%; in assay [9] (TEC, 10 μM), 100%; in [10], 100%; in assay [11] (TRKB, 10 μM) it was 100%.
